In publication PMC8318231, “Rate-of-Kill (RoK) assays to triage large compound sets for Chagas disease drug discovery: Application to GSK Chagas Box” (PLoS Neglected Tropical Diseases, 2021):

Key:
[1] = tested on: T. cruzi intracellular amastigotes in H9c2 cells; assay: Rate-of-Kill (RoK) high-content imaging assay, amastigotes per cell (AM/CELL) and curve descriptors; assay type: cell-based, Trypanosoma cruzi; parameters: key to ME_24h / ME_48h / ME_72h: % reduction in parasite burden (cidal response); t50pct_MCC50 / t50pct_Cmax: unit not given here; details: for ME_24h: 24h; for ME_48h: 48h; for ME_72h: 72h; for MCCE (Minimal Compound Concentration with Effect): lowest concentration that decreases AUC of AM/CELL versus time by at least 50% vs infected control; for MCC50 (Minimal Cidal Concentration 50%): lowest concentration that reduces 50% of the parasite load measured at zero time; for AM/CELL NORM: figure 4 A; for Emax: maximum percentage of parasite burden reduction reached by any concentration, 24 hours, read-out: ME 24h (maximum effect at 24 hours, intracellular amastigotes); for t50%_Cmax / tlag_Cmax / t50pct_Cmax: at Cmax; for ME_24h (%): maximum effect at 24 h; for ME_24h (%) / ME_48h (%) / ME_72h (%): RoK assay; for ME_48h (%): maximum effect at 48 h; for ME_72h (%): maximum effect at 72 h
In short: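 Readouts at each time point are amastigotes per cell and host nuclei count (cytotoxicity), from DRAQ5 high-content imaging. Infection: trypomastigotes on H9c2 at MOI 8 for 18 h. Dosing was 5 μM single point or 11 points, 1/3 steps from 50 μM. Effect scaled between 4 h infected and uninfected controls.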

[2] = tested on: T. cruzi intracellular amastigotes in H9c2 cells; assay: RoK combination assay with BNZ; assay type: cell-based, Trypanosoma cruzi; details: 50 μM BNZ
Method: The assay was performed following the same experimental procedure mentioned above in the RoK assay. The infected H9c2 cells were treated with final 10 and 50 μM concentrations of BNZ and DMSO before being dispensed into the plates containing the compounds. For the combination with 50 μM BNZ, two plates were incubated for 4 and 24 hours respectively before being fixed. For the combinations with 10 μM BNZ and with DMSO, four plates for each condition were incubated for 4, 24, 48 and 72 hours before being fixed.

[3] = parameters: method as in PMID 25805302; details: cited from earlier work
Trypanosoma cruzi = details: cited from earlier work

SMILES | ME (maximum effect) in RoK assay (in words) [1] | tlag (in words) [1] | ME_24h ([1]; figure 5) | ME_48h ([1]; figure 5) | ME_72h ([1]; figure 5) | MCC50 ([1]; RoK curve descriptor) [µM] | MCCE ([1]; RoK curve descriptor) [µM] | AM/CELL NORM ([1]; Time 4) | AM/CELL NORM ([1]; Time 24) | AM/CELL NORM ([1]; Time 48) | AM/CELL NORM ([1]; Time 72) | Emax ([1]; Trypanosoma cruzi, H9c2) [%] | t50%_Cmax [1] [h] | tlag_Cmax [1] [h] | t50pct_Cmax ([1]; figure 5) | tlag_Cmax ([1]; figure 5) | t50%_MCC50 ([1]; at MCC50) [h] | tlag_MCC50 ([1]; at MCC50) [h] | t50pct_MCC50 ([1]; at MCC50, figure 5) | tlag_MCC50 ([1]; at MCC50, figure 5) | also measured
O=C(Cn1ccnc1[N+](=O)[O-])NCc1ccccc1 [Benznidazole, benznidazole, reference compound] | higher ME values close to 100% | short t-lag values | 49.8205 | 84.8832 | 90.745 | 31.2 | 3.9 | 14.6109 | 40.5448 | 53.9104 | 66.8038 | 49.2 | 35.0 | 5.5 | 34 | 4 | 46.2 | 8.6 | 46 | 7.333 | MCCE (Minimal Compound Concentration with Effect) ([1]; Fig 2C, average, listed as BNZ): 3.9 µM; MCC50 (Minimal Cidal Concentration 50%) ([1]; Fig 2C, average, listed as BNZ): 31.2 µM; t50pct_MCC50 (t50%_MCC50) ([1]; Fig 2C, average, time to reduce 50% of initial parasite load at MCC50, listed as BNZ): 46.2 h; Emax at 50 µM ([1]; Trypanosoma cruzi, H9c2, BNZ at 50 μM, 48 hours, read-out: maximum effect): 100%; MCCE ([1]; figure 5): 4.172; MCC50 ([1]; figure 5, in µM): 33.802; ME_24h (%) [1]: 49.8%; ME_48h (%) [1]: 84.9%; ME_72h (%) [1]: 90.7%; AM/CELL ([2]; no compound 1, 4 hours): 2.023; AM/CELL ([2]; no compound 1, 24 hours): 1.3207; average time to interruption of treatment [3]: 26.7 days
CC[C@@H]([C@H](C)O)n1ncn(-c2ccc(N3CCN(c4ccc(OC[C@@H]5CO[C@@](Cn6cncn6)(c6ccc(F)cc6F)C5)cc4)CC3)cc2)c1=O [Posaconazole, reference compound] | lower ME | longer tlag_MCC50 and tlag_Cmax values | -76.4226 | -0.321 | 50.6685 | 6.2 | 0.003 | 5.09 | -32.2625 | -0.614 | 48.3608 | -63 | 65.9 | 24.0 | 65.8667 | 24 | 54.2 | 29.3 | 61.3333 | 46.4 | MCCE (Minimal Compound Concentration with Effect) ([1]; Fig 2C, average): 0.003 µM; MCC50 (Minimal Cidal Concentration 50%) ([1]; Fig 2C, average, listed as POS): 6.2 µM; t50pct_Cmax (t50%_Cmax) ([1]; Fig 2C, average, time to reduce 50% of initial parasite load at maximum concentration): 65.9 h; MCCE ([1]; figure 5): 0.002879; MCC50 ([1]; figure 5, in µM): 23.7078; ME_24h (%) [1]: -76.4%; ME_48h (%) [1]: -0.32%; ME_72h (%) [1]: 50.7%; curative dose in mice (Trypanosoma cruzi): 20 mg/kg/day
